In patent US10421723B2, “2,3-diacylated, 2- and 3-mono-acylated alkylated imino sugars exhibiting glucosidase inhibition and their method of use” (priority 2016, dated 2019):

Key:
[1] = test system: target viruses; conditions: cited from earlier work
[2] = Stability and conversion in simulated intestinal fluids; type: in vitro ADME; conditions: 4 h, 5 μM, 37° C.
Protocol: The stability of exemplary compounds of the present invention and their conversion to active derivatives in simulated intestinal fluids is evaluated. The working solutions of test compounds and control compound chlorambucil were prepared in DMSO at the concentration of 500 μM. 2 μL of the working solution and 198 μL of simulated intestinal fluids were added into centrifuge tubes to achieve a final concentration of 5 μM, and incubated at 37° C. water bath with shaking at approximately 60 rpm. One of the centrifuge tubes was taken at designated time points including 0, 1, 2, 3 and 4 hours. The assay was performed in duplicate. The reaction was stopped by adding 5 volumes of cold quench solution (acetonitrile containing internal standards (IS, 100 nM Alprazolam, 500 nM Labetalol and 2 μM Ketoprofen)) to the spiked simulated intestinal fluids samples at the appointed time points. Another time 0 samples of parent compound were also prepared, and they were used to calculate the conversion percentages of prodrugs to parent compound (used as T0-2). Samples were vortexed for 2 minutes and centrifuged at 20,000 g for 15 minutes at 4° C. to precipitate protein. And then 50 μL of the supernatant was transferred to a new 96-well plate with 100 μL quench solution and 100 μL water for LC-MS/MS analysis.

[3] = Stability and conversion in simulated gastric fluid; type: in vitro ADME; conditions: 4 h, 37° C.
Protocol: The stability of exemplary compounds of the present invention and their conversion to their active derivatives in simulated gastric fluid is evaluated. The working solutions of test compounds and control compound erythromycin were prepared in DMSO at the concentration of 500 μM. 2 μL of the working solution and 198 μL of simulated gastric fluids were added into centrifuge tubes to achieve a final concentration of […] incubated at 37° C. water bath with shaking at approximately 60 rpm. One of the centrifuge tubes was taken at designated time points including 0, 30, 60, 90 and 120 minutes. The assay was performed in duplicate. The reaction was stopped by adding 5 volumes of cold quench solution (acetonitrile containing internal standards (IS, 100 nM Alprazolam, 500 nM Labetalol and 2 μM Ketoprofen)) to the spiked simulated gastric fluids samples at the appointed time points. Another time 0 samples of parent compound were also prepared, and they were used to calculate the conversion percentages of prodrugs to parent compound (used as T0-2). Samples were vortexed for 2 minutes and centrifuged at 20,000 g for 15 minutes at 4° C. to precipitate protein. And then 50 μL of the supernatant was transferred to a new 96-well plate with 100 μL quench solution and 100 μL water for LC-MS/MS analysis.

Structure (SMILES) | concentrations to achieve EC50 values in tissue culture against their target viruses [1] | Stability in Intestinal Fluid, Remaining [2] | Stability in Gastric fluids, Remaining [3]
CCCC(=O)O[C@H]1CN2CC[C@H](O)[C@@H]2[C@@H](O)[C@@H]1O [Celgosivir] | near millimolar |  | 
CCCCN1C[C@H](O)[C@@H](O)[C@H](O)[C@H]1CO [NBDNJ, N-butyl-DNJ] | near millimolar |  | 
CCCCOC(=O)OC1CN(CCCCCCN(C(=O)NC(C)(C)C)C2CCCCC2)C(CO)C(O)C1OC(=O)OCCCC (stereo not shown) [XXVII(a)] |  | 65.7% | 93%
CCCCOC(=O)OC1CN(CCCCCCN(C(=O)NC(C)(C)C)C2CCCCC2)C(CO)C(O)C1O (stereo not shown) [XXVIII(a)] |  | 62.7% | 98.1%
CC(C)COC(=O)OC1CN(CCCCCCN(C(=O)NC(C)(C)C)C2CCCCC2)C(CO)C(O)C1O (stereo not shown) [XXVIII(b)] |  | 70.9% | 89.2%
CC(NC(=O)OC(C)(C)C)C(=O)OC1C(O)CN(CCCCCCN(C(=O)NC(C)(C)C)C2CCCCC2)C(CO)C1O (stereo not shown) [XXX(a)] |  | 30.7% | 81.1%
